Reference: publication PMC3582512, “Application of a Novel Microtitre Plate-Based Assay for the Discovery of New Inhibitors of DNA Gyrase and DNA Topoisomerase VI” (PLoS ONE, 2013)
Entries after “also recorded” stand apart in the source; their conditions may differ.

Assays:
M. mazei topo VI [1] = molecular target: T1, M. mazei topo VI (Methanosarcina mazei, UniProt Q8PUB7+Q8PUB8); test: Agarose gel-based DNA relaxation assay; assay type: biochemical; conditions: for IC50: gel relaxation assay, 1 unit (50 nM) topo VI, read-out: Approx. IC50 against M. mazei topo VI; for Mechanism (Topo VI): summary of mechanistic tests with M. mazei and S. shibatae topo VI
T1 construct: His tag; made in house
T1 sequence (Q8PUB8 whole entry): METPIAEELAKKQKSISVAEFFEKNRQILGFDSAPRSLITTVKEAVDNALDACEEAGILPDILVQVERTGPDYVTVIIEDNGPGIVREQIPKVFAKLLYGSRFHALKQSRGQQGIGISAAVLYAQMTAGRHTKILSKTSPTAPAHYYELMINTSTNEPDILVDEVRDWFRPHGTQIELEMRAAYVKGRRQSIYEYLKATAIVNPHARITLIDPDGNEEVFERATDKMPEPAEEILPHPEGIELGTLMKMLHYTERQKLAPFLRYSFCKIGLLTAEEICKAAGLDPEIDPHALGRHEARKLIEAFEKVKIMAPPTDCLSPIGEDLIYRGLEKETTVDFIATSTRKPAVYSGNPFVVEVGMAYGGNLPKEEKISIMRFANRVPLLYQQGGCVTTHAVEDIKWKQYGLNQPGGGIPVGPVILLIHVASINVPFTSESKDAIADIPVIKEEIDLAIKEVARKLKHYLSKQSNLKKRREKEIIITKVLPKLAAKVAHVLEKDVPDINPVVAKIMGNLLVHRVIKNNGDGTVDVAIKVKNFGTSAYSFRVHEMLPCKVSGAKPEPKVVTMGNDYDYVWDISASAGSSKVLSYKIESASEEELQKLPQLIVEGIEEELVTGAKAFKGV
T1 sequence (Q8PUB7 whole entry): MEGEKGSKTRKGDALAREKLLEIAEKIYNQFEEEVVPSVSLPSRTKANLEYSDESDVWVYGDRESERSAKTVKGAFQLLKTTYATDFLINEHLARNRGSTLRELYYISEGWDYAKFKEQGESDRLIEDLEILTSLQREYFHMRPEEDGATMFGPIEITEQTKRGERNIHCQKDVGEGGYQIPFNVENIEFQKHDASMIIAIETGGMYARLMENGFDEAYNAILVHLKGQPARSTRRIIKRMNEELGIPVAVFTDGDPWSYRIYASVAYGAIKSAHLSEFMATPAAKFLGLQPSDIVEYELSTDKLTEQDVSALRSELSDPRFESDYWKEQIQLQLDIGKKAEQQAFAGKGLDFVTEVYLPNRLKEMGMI
Procedure: The agarose gel-based assay was conducted as previously described, [44], [62]. In brief, topoisomerases were incubated with 0.5 µg of plasmid and the desired concentration of compound for 30 min at 37°C (for DNA gyrase and M. mazei topo VI) or 5 min at 75°C (for S. shibatae topo VI), in a total volume of 30 µL. […] Reactions were stopped by the addition of a loading buffer containing EDTA and the drug extracted by vortexing with either chloroform or aqueous butanol as required. In the case of M. mazei topo VI, it was necessary to include SDS in the loading buffer, at a final concentration of 1%. Samples were loaded onto a 1% agarose gel, run for the appropriate length of time and stained with ethidium bromide before visualisation on a UV transilluminator.

S. shibatae topo VI = molecular target: T2, S. shibatae topo VI (Saccharolobus shibatae, UniProt O05207+O05208); test: Protection from ADPNP-induced, S. shibatae topo VI-mediated DNA cleavage; assay type: biochemical, Sulfolobus shibatae
T2 construct: gift from Danielle Gadelle (University of Paris XI, Orsay)
T2 sequence (O05207 whole entry): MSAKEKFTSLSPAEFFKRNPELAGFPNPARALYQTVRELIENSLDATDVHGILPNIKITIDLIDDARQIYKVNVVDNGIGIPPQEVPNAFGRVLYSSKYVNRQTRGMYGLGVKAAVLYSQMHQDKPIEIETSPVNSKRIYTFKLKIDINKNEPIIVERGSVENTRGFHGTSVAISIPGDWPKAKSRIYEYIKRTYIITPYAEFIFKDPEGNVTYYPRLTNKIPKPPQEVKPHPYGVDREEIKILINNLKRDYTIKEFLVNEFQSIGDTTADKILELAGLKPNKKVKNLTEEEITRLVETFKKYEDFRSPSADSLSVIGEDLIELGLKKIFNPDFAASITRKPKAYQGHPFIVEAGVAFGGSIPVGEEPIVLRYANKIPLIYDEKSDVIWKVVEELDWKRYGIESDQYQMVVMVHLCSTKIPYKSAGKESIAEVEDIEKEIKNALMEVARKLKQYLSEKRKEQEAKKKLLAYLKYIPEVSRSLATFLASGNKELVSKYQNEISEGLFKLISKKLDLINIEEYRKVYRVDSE
T2 sequence (O05208 whole entry): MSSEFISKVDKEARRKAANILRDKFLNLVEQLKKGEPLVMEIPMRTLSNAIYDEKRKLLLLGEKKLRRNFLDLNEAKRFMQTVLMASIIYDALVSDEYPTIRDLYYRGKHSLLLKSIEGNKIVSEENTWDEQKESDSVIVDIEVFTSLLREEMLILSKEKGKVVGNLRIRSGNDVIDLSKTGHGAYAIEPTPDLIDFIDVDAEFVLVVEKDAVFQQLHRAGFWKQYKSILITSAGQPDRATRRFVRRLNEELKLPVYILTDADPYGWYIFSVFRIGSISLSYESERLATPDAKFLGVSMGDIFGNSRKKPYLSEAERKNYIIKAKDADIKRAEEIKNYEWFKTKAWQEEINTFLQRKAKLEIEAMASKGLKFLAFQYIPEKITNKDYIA
Procedure: Assays to detect the stabilisation of cleavage complexes were identical to the protocol for topoisomerase activity detailed above, except as follows. Cleavage experiments with DNA gyrase were carried out in the absence of ATP and spermidine and 30 µL reactions were stopped with 3 µL 10% SDS and incubated with 3 µL 1 mg/mL proteinase K solution at 37°C for 1 h. For cleavage complex protection assays with suramin, the reaction buffer was modified to contain 4 mM CaCl2 rather than MgCl2.

E. coli DNA gyrase [2] = molecular target: T3, E. coli DNA gyrase (Escherichia coli, UniProt P0AES4+P0AES6); test: DNA triplex-based microtitre plate screen, gyrase supercoiling; assay type: biochemical; conditions: 25 µM compound, duplicate
T3 construct: made in house
T3 sequence (P0AES4 whole entry, one chain of several): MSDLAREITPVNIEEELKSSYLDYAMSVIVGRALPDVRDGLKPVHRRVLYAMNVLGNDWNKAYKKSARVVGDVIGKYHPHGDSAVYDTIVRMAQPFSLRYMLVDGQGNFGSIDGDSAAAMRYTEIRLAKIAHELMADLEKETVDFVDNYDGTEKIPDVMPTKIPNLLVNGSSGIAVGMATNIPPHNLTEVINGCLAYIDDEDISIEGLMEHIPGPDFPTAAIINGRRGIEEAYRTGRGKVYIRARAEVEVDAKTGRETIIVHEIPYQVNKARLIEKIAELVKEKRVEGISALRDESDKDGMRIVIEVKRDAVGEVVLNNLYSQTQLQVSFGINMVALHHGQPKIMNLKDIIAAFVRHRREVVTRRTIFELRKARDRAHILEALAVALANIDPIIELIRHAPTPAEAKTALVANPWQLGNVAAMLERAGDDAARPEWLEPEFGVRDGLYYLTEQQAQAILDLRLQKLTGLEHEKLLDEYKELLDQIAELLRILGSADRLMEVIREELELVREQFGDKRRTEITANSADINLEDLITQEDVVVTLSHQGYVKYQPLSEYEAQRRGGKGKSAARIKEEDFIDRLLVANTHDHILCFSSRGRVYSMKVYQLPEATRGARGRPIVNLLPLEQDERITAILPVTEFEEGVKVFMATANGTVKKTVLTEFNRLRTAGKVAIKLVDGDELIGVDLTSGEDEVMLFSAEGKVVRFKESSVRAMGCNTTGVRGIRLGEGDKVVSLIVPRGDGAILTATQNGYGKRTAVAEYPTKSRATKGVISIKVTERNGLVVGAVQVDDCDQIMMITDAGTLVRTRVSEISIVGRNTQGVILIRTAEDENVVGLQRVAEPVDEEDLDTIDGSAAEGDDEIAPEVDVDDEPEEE
Procedure: The triplex-based assay was conducted as previously described [45]–[47]. In brief, oligonucleotide TFO1 was immobilised onto a streptavidin-coated microtitre plate. Excess oligonucleotide was removed by washing with buffer. […] The reaction was stopped by the addition of a low pH, high salt buffer and triplex formation was allowed to occur for 30 min at room temperature. The DNA retained on the plate was stained with SYBR Gold (Sigma) dye and the fluorescence readings for each well read in a SpectraMax Gemini fluorimeter (Molecular Devices).
Twelve plates were screened in duplicate over three days manually using a multichannel pipette as previously described. […] Each plate contained 16 control reactions: eight positive for enzyme activity, which contained enzyme but no library compounds, and eight negative for enzyme activity, which lacked both enzyme and library compounds. All controls were carried out with 5% DMSO.

E. coli DNA gyrase [3] = molecular target: T3, E. coli DNA gyrase; conditions: not studied further in this paper; cited from earlier work
M. mazei topo VI [4] = molecular target: T1, M. mazei topo VI; test: Native gel shift assay, topo VI binding to 147 bp DNA fragment
Procedure: In order to test the effects of hit compounds upon DNA binding by topoisomerases, samples of enzyme and drug were prepared under the following conditions in a final volume of 10 μL: 1 nM 147 bp linear fragment of DNA derived from pBR322, [82] 50 mM Tris•HCl (pH 7.5), 100 mM KCl, 5 mM MgCl2, 2 mM DTT, 10% w/v glycerol. Samples were incubated for 30 min at room temperature before being run on a 5% (29:1) Protogel acrylamide (National Diagnostics) gel in 90 mM Tris·Borate, 5 mM MgCl2 at 150 V for 45 min. The DNA was stained by soaking in 2 µg/mL ethidium bromide for 10 min and visualised under UV light.

For `Nc1c2ccccc2nc2ccccc12` [9-Aminoacridne, 9-aminoacridine], the “Inhibition in gel-based relaxation assay (hit validation)” value (shortened to “Inhibition … (hit validation)”) (M. mazei topo VI [1]) was “validated as hits”, the IC50 (M. mazei topo VI [1]) was 6 µM and the “Mechanism (Topo VI)” value (M. mazei topo VI [1]) was “Prevents DNA cleavage”. For the same compound, the “Prevention of ADPNP-induced DNA cleavage by S. shibatae topo VI” value (from here on “Prevention of ADPNP-induced DNA cleavage”) (S. shibatae topo VI) was “appeared to prevent ADPNP-induced cleavage”.
In the case of `C[n+]1c2cc(N)ccc2cc2ccc(N)cc21` [Acriflavinium], the “Outcome in gyrase screen (hit threshold 25% inhibition)” value (E. coli DNA gyrase [2]) is given as “scored over the hit threshold” and the “Mechanism (DNA gyrase), already characterised inhibitors” value (E. coli DNA gyrase [3]) is given as “ATPase inhibitor”.
For `O=C(O)c1cn(C2CC2)c2cc(N3CCNCC3)c(F)cc2c1=O` [Ciprofloxacin], the “Mechanism (DNA gyrase), already characterised inhibitors” value (E. coli DNA gyrase [3]) is given as “Fluoroquinolone cleavage-complex stabiliser”.
For `COc1c(N2CCNC(C)C2)c(F)cc2c(=O)c(C(=O)O)cn(C3CC3)c12` (stereo not shown) [Gatifloxacin], the “Mechanism (DNA gyrase), already characterised inhibitors” value (E. coli DNA gyrase [3]) is given as “Fluoroquinolone cleavage-complex stabiliser”.
In the case of `C[C@H]1COc2c(N3CCN(C)CC3)c(F)cc3c(=O)c(C(=O)O)cn1c23` [Levofloxacin], the “Mechanism (DNA gyrase), already characterised inhibitors” value (E. coli DNA gyrase [3]) is listed as “Fluoroquinolone cleavage-complex stabiliser”.
For `CCn1cc(C(=O)O)c(=O)c2cc(F)c(N3CCNC(C)C3)c(F)c21` (stereo not shown) [Lomefloxacin], the “Mechanism (DNA gyrase), already characterised inhibitors” value (E. coli DNA gyrase [3]) is listed as “Fluoroquinolone cleavage-complex stabiliser”.
In the case of `COc1c(N2C[C@@H]3CCCN[C@@H]3C2)c(F)cc2c(=O)c(C(=O)O)cn(C3CC3)c12` [Moxifloxacin], the “Mechanism (DNA gyrase), already characterised inhibitors” value (E. coli DNA gyrase [3]) is given as “Fluoroquinolone cleavage-complex stabiliser”.
For `CCn1cc(C(=O)O)c(=O)c2cc(F)c(N3CCNCC3)cc21` [Norfloxacin], the “Mechanism (DNA gyrase), already characterised inhibitors” value (E. coli DNA gyrase [3]) is listed as “Fluoroquinolone cleavage-complex stabiliser”.
In the case of `CC1COc2c(N3CCN(C)CC3)c(F)cc3c(=O)c(C(=O)O)cn1c23` (stereo not shown) [Ofloxacin], the “Mechanism (DNA gyrase), already characterised inhibitors” value (E. coli DNA gyrase [3]) is given as “Fluoroquinolone cleavage-complex stabiliser”.
In the case of `CCn1cc(C(=O)O)c(=O)c2cc(F)c(N3CCN(C)CC3)cc21.CS(=O)(=O)O` [Perfloxacine Mesylate], the “Mechanism (DNA gyrase), already characterised inhibitors” value (E. coli DNA gyrase [3]) is given as “Fluoroquinolone cleavage-complex stabiliser”.
For `O=C1c2ccccc2C(=O)c2c(O)c(O)cc(O)c21` [Purpurin], the “Inhibition … (hit validation)” value (M. mazei topo VI [1]) was “validated as hits”, the IC50 (M. mazei topo VI [1]) was 40 µM and the “Mechanism (Topo VI)” value (M. mazei topo VI [1]) was “Blocks DNA binding”. The “Prevention of ADPNP-induced DNA cleavage” value (S. shibatae topo VI) was “marked ability to reduce the amount of cleavage” and the “Effect on binding of M. mazei topo VI to DNA” value (M. mazei topo VI [4]) was “appeared to prevent the binding of topo VI to DNA; also recorded: appeared to prevent G-segment binding”.
For `CCN(CC)CCCC(C)Nc1c2ccc(Cl)cc2nc2ccc(OC)cc12` (stereo not shown) [Quinacrine], the “Inhibition … (hit validation)” value (M. mazei topo VI [1]) was “validated as hits”, the IC50 (M. mazei topo VI [1]) was 8 µM and the “Mechanism (Topo VI)” value (M. mazei topo VI [1]) was “Prevents DNA cleavage”. The “Prevention of ADPNP-induced DNA cleavage” value (S. shibatae topo VI) was “appeared to prevent ADPNP-induced cleavage”.
In the case of `O=C(O)c1cn(-c2ccc(F)cc2)c2cc(N3CCNCC3)c(F)cc2c1=O` [Surafloxacin], the “Mechanism (DNA gyrase), already characterised inhibitors” value (E. coli DNA gyrase [3]) is listed as “Fluoroquinolone cleavage-complex stabiliser”.
For `CCn1nc(C(=O)O)c(=O)c2cc3c(cc21)OCO3` [cinoxacin], the “Outcome in gyrase screen (hit threshold 25% inhibition)” value (E. coli DNA gyrase [2]) was “missed by the screen”.
With `CCn1cc(C(=O)O)c(=O)c2cc(F)c(N3CCNCC3)nc21` [enoxacin] the “Outcome in gyrase screen (hit threshold 25% inhibition)” value (E. coli DNA gyrase [2]) was “missed by the screen”.
With `COc1cc(NS(C)(=O)=O)ccc1Nc1c2ccccc2nc2ccccc12` [m-Amsacrine] the “Inhibition … (hit validation)” value (M. mazei topo VI [1]) was “validated as hits”, the IC50 (M. mazei topo VI [1]) was 30 µM and the “Mechanism (Topo VI)” value (M. mazei topo VI [1]) was “Prevents DNA cleavage”.
With `CCn1cc(C(=O)O)c(=O)c2ccc(C)nc21` [nalidixic acid] the “Outcome in gyrase screen (hit threshold 25% inhibition)” value (E. coli DNA gyrase [2]) was “missed by the screen”.
With `CCn1cc(C(=O)O)c(=O)c2cc3c(cc21)OCO3` [oxolinic acid] the “Outcome in gyrase screen (hit threshold 25% inhibition)” value (E. coli DNA gyrase [2]) was “missed by the screen”.
